Results reported in US20120142784A1, “LYSINE-SPECIFIC DEMETHYLASE 1(LSD1) IS A BIOMARKER FOR BREAST CANCER” (priority 2009, published 2012).

Assays:
[1] = system: MCF7, MDA-MB 453, MDA-MB 231 and T47D breast cancer cells; test: MTT cell growth assay, breast cancer cell lines; format: cell-based; details: four breast cancer cell lines, treatment for 72 hours
Procedure: (§1) MCF7, MDA-MB 453 and MDA-MB 231 breast cancer cells were cultivated in DMEM, T47D breast cancer cells were cultivated in RPMI, GLC-1, GLC-2 and H460 R lung carcinoma cells were cultivated in IMDM, and sarcoma cells 1273 were cultivated in Häm's F12. All media were supplemented with 10% FCS, L-glutamine and antibiotics.
(§2) An 3-([…])-2,5-diphenyltetrazolium bromide (MTT) assay was performed according to the manufacturer's protocol (Roche, Mannheim, Germany).

[2] = system: global H3K4 dimethylation; test: Western blot of H3K4 dimethylation in breast cancer cells; format: cell-based; details: 10 and or 30 μM, 24 h
Procedure: Protein lysates were extracted from cells and blotted as described in Schulte et al. [Schulte, J. H. et al. (2009), see above] The membranes were incubated for 1-2 hours using the following antibodies and dilutions: α-LSD1 (Novus Biologicals) 1:1000; α-K4H3me2 (Abcam, Cambridge, UK) 1:1000; β-actin (Sigma-Aldrich, Hamburg, Germany) 1:5000; Her2/erbB2 (DAKO), 1:1000. […] Anal. Biochem., 295, 17-21].

[3] = system: liposarcoma cell lines FU-DDLS-1, MLS1765, T449, T778, MLS402, SW872; test: MTT cell growth assay, liposarcoma cell lines; details: six liposarcoma cell lines, 72 h
[4] = system: GLC-1, GLC-2 and H460 R lung carcinoma cells; details: three lung carcinoma cell lines, 72 hours
Procedure: as §1, §2

sarcoma cells 1273 = details: sarcoma cell line 1273, 72 hours
Procedure: as §1, §2

[5] = system: synovial sarcoma cell lines SYO-1, HS-SY-II, 1273/99, Fuji and CME-1; test: MTT cell growth assay, synovial sarcoma cell lines; details: five synovial sarcoma cell lines, 72 h
LSD1 protein = LSD1 protein (Homo sapiens, UniProt O60341); details: breast cancer cells, 10 and or 30 μM, 24 h
Procedure: The membranes were incubated for 1-2 hours using the following antibodies and dilutions: α-LSD1 (Novus Biologicals) 1:1000; α-K4H3me2 (Abcam, Cambridge, UK) 1:1000; β-actin (Sigma-Aldrich, Hamburg, Germany) 1:5000; Her2/erbB2 (DAKO), 1:1000.

Compound	cell growth (MTT assay, viable cells) [1]	global H3K4 dimethylation (Western blot) [2]	cell growth (MTT assay, viable cells) [3]	cell growth (MTT assay, viable cells) [4]	cell growth (MTT assay, % viability) (sarcoma cells 1273)	cell growth (MTT assay, viable cells) [5]	LSD1 protein levels (Western blot) (LSD1 protein)
N[C@@H]1C[C@H]1c1ccccc1 (racemic) [tranylcypromine]	impaired cell growth in a dose-dependent manner	accumulation of H3K4 dimethylation	impaired cell growth in these sarcoma cell lines in a concentration dependent manner	impaired cell growth	impaired cell growth	impaired cell growth in these sarcoma cell lines in a concentration dependent manner	
C#CCN(C)CCCOc1ccc(Cl)cc1Cl [clorgyline]	impaired cell growth in a dose-dependent manner	accumulation of H3K4 dimethylation	impaired cell growth in these sarcoma cell lines in a concentration dependent manner			impaired cell growth in these sarcoma cell lines in a concentration dependent manner	not affected
C#CCN(C)Cc1ccccc1 [pargyline]			impaired cell growth in these sarcoma cell lines in a concentration dependent manner			impaired cell growth in these sarcoma cell lines in a concentration dependent manner	
